Tests used:
[1] = Stability in human liver microsomes; format: in vitro ADME; conditions: half-life
Procedure: Stability in liver microsomes. Human, mouse and rat liver microsomes were used to assess the metabolic stability for the compounds. Metabolic stability was determined in 0.5 mg/mL human, mouse or rat liver microsomes at a compound concentration of 1 μM in 100 mM potassium phosphate buffer (pH 7.4) in a total incubation volume of 500 μL by Eurofins. The assay matrix was: human liver microsomes: mixed gender and pool of 50, rat liver microsomes: male, Sprague-Dawley, pool of 100 or more and mouse liver microsomes: male,CD-1, pool of 250 or more. Final microsomal protein concentration: 0.1mg/mL. The test concentration was 0.1 μM with 0.01% DMSO, 0.25% acetonitrile and 0.25% methanol by default. […] The reaction was initiated by adding NADPH-generating system and was incubated for 0, 15, 30, 45, and 60 min. The reaction was stopped by transferring the incubation mixture to acetonitrile/methanol. Samples were then mixed and centrifuged. Four reference compounds were tested in each assay. Propranolol and imipramine are relatively stable, whereas verapamil and terfenadine are readily metabolized inhuman liver microsomes. Samples were analyzed by HPLC-MS/MS using selected reaction monitoring. The HPLC system consisted of a binary LC pump with autosampler, a C-18 column, and a gradient. Peak areas corresponding to the test compound were recorded. The compound remaining was calculated by comparing the peak area at each time point to time zero. The half-life was calculated from the slope of the initial linear range of the logarithmic curve of compound remaining (%) vs. time, assuming first order kinetics. In addition, the intrinsic clearance (Clint) was calculated.^19,20

human AT2R = target: T1, human AT2R (Homo sapiens, UniProt P50052); format: binding; conditions: HEK-293 cell membranes
T1 construct: host or cells: HEK-293
T1 sequence (P50052 1-363): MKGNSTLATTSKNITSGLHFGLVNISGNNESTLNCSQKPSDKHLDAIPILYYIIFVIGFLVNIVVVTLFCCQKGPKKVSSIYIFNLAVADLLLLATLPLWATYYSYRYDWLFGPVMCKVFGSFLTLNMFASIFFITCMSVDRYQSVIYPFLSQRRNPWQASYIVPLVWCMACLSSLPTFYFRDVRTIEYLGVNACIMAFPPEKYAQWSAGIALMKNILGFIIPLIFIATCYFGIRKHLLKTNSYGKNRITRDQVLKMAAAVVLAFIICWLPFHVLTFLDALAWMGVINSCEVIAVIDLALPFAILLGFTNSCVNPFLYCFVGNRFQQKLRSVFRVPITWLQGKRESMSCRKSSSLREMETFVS

human AT1R = target: T2, human AT1R (Homo sapiens, UniProt P30556); format: binding; conditions: HEK-293 cell membranes
T2 construct: host or cells: HEK-293
T2 sequence (P30556 1-359): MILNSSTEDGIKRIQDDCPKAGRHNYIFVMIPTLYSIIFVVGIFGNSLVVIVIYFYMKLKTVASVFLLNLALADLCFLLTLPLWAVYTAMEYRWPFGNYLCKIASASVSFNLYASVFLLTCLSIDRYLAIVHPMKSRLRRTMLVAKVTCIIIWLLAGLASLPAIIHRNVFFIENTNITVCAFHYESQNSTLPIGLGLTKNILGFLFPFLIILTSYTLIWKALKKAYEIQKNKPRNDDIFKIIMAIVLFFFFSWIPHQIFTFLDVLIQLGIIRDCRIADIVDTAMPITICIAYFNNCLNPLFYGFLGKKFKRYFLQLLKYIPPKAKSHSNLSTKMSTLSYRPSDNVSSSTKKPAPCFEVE

CYP2C8 = target: T3, CYP2C8 (Homo sapiens, UniProt P10632); experiment: CYP450 inhibition assay, pooled human liver microsomes, amodiaquine substrate; conditions: both, human, pooled human liver microsomes, pH 7.4, probe amodiaquine
T3 sequence (P10632 1-490): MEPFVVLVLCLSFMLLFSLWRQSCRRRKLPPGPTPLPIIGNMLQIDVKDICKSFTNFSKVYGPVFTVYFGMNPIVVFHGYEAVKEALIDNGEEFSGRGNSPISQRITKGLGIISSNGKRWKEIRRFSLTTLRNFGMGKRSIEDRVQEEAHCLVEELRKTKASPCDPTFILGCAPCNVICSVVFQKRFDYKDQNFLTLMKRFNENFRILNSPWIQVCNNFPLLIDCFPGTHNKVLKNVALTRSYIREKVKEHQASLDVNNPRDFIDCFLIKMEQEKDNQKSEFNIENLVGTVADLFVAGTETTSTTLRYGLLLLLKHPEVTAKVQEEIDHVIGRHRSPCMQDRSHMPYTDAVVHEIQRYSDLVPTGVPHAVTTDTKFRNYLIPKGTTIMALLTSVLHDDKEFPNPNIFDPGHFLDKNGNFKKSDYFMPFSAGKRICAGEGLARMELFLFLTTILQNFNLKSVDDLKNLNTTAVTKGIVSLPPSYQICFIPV

CYP2B6 = target: T4, CYP2B6 (Homo sapiens, UniProt P20813); experiment: CYP450 inhibition assay, pooled human liver microsomes, bupropion substrate; conditions: both, human, pooled human liver microsomes, pH 7.4, probe bupropion
T4 sequence (P20813 1-491): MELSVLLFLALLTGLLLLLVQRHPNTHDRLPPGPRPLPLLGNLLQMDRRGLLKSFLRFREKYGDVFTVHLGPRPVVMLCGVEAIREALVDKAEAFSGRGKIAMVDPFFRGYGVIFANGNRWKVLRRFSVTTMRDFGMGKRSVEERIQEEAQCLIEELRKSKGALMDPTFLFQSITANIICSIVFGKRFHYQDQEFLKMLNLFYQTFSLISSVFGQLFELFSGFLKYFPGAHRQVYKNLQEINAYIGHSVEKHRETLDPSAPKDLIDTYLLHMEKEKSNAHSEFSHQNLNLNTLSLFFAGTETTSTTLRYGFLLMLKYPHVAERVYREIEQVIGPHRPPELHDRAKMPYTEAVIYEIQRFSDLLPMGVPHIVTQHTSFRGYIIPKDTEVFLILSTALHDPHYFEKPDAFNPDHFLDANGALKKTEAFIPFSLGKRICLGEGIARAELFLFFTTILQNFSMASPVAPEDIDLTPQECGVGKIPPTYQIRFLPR

CYP2C9 = CYP2C9 (Homo sapiens, UniProt P11712); experiment: CYP450 inhibition assay, pooled human liver microsomes, diclofenac substrate; conditions: both, human, pooled human liver microsomes, pH 7.4, probe diclofenac
Chain of CYP2C9 (P11712 whole entry): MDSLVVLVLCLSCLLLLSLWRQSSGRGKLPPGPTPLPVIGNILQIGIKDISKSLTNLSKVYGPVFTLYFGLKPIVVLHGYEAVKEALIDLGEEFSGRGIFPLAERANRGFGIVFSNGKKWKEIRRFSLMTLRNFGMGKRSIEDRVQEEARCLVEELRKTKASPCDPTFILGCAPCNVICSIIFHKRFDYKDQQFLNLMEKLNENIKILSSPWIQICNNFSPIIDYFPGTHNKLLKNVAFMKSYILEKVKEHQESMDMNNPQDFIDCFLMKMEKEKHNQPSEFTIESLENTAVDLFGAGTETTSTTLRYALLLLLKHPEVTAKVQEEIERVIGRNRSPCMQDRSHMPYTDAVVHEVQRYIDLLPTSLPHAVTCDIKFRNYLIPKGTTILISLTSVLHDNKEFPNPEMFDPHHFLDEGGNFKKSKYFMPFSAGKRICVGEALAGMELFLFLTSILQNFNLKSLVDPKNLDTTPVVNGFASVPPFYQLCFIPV

CYP2D6 = CYP2D6 (Homo sapiens, UniProt P10635); experiment: CYP450 inhibition assay, pooled human liver microsomes, dextromethorphan substrate; conditions: both, human, pooled human liver microsomes, pH 7.4, probe dextromethorphan
Chain of CYP2D6 (P10635 whole entry): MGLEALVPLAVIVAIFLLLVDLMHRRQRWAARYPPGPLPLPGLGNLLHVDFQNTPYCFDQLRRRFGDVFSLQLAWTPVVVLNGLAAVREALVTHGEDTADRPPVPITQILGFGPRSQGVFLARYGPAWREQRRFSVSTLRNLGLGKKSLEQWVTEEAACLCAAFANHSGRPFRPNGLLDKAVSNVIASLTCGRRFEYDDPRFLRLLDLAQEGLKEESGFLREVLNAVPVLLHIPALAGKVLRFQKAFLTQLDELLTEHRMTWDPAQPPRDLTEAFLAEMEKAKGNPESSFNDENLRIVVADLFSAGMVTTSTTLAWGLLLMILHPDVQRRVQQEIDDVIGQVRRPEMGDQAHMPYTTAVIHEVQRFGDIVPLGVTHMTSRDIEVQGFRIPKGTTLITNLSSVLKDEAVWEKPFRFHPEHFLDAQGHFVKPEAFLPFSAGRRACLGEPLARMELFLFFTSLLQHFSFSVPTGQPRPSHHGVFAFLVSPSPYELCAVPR

CYP3A [2] = experiment: CYP450 inhibition assay, pooled human liver microsomes, midazolam substrate; conditions: both, human, pooled human liver microsomes, pH 7.4, probe midazolam
CYP2C19 = CYP2C19 (Homo sapiens, UniProt P33261); experiment: CYP450 inhibition assay, pooled human liver microsomes, omeprazole substrate; conditions: both, human, pooled human liver microsomes, pH 7.4, probe omeprazole
Chain of CYP2C19 (P33261 whole entry): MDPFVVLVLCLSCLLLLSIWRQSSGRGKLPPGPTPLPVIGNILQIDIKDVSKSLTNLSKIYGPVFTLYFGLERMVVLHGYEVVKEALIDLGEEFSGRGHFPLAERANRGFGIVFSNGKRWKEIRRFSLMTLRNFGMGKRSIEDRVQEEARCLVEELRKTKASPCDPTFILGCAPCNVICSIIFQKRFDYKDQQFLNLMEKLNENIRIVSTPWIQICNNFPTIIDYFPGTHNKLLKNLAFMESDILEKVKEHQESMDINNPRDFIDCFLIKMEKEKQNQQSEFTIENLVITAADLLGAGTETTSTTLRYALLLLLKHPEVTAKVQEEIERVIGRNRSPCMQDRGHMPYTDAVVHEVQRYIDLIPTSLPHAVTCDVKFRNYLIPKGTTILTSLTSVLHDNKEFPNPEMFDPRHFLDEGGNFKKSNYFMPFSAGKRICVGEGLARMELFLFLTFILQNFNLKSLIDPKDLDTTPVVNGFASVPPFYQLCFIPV

CYP3A [3] = experiment: CYP450 inhibition assay, pooled human liver microsomes, testosterone substrate; conditions: both, human, pooled human liver microsomes, pH 7.4, probe testosterone, CYP 450 Inhibition CYP3A testosterone, at 10 μM
CYP1A = target: T5, CYP1A (Homo sapiens, UniProt P05177); experiment: CYP450 inhibition assay, pooled human liver microsomes, phenacetin substrate; conditions: both, human, pooled human liver microsomes, pH 7.4, probe phenacetin
T5 sequence (P05177 1-516): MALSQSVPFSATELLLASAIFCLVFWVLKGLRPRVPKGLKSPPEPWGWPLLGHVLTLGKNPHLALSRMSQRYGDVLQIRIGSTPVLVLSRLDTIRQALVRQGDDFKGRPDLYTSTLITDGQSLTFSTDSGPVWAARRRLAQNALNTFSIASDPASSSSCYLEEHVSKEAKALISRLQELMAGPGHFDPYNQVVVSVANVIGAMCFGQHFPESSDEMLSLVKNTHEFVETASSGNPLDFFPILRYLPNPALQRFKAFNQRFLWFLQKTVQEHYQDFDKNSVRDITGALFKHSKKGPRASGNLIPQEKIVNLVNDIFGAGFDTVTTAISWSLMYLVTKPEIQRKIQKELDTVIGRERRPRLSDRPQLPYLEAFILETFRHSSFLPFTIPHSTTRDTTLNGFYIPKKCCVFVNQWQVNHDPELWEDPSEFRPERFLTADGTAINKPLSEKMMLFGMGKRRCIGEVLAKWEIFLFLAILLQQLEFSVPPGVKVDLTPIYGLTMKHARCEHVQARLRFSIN

| Structure (SMILES) | Stability in liver microsomes HLM [1] | Ki (human AT2R) | Ki (human AT1R) | other results |
| --- | --- | --- | --- | --- |
| CCCCOC(=O)NS(=O)(=O)c1sc(CCC)nc1-c1ccc(Cn2ccnc2C(C)C)cc1 [Example 15, Butyl ((4-(4-((2-isopropyl-1H-imidazol-1-yl)methyl)phenyl)-2-propylthiazol-5-yl)sulfonyl)carbamate] | >60 min | 0.039 µM | – | – |
| CCCCOC(=O)NS(=O)(=O)c1sc(CC(C)C)nc1-c1ccc(Cn2ccnc2-c2nccs2)cc1 [Example 16, Butyl ((2-isobutyl-4-(4-((2-(thiazol-2-yl)-1H-imidazol-1-yl)methyl)phenyl)thiazol-5-yl)su Ifonyl)carbamate] | >60 min | 0.041 µM | 1 µM | – |
| CCCCOC(=O)NS(=O)(=O)c1sc(CC(C)C)nc1-c1ccc(Cn2ccnc2C(C)C)cc1 [Example 18, Butyl ((2-isobutyl-4-(4-((2-isopropyl-1H-imidazol-1-yl)methyl)phenyl)thiazol-5-yl)sulfonyl)carbamate] | >60 min | 0.0058 µM | 1 µM | – |
| COC(=O)NS(=O)(=O)c1sc(CC(C)C)nc1-c1ccc(Cn2ccnc2C(C)C)cc1 [Example 20, Methyl ((2-isobutyl-4-(4-((2-isopropyl-1H-imidazol-1-yl)methyl)phenyl)thiazol-5-yl)sulfonyl)carbamate] | >60 min | 0.027 µM | – | – |
| COC(=O)NS(=O)(=O)c1sc(CC(C)C)nc1-c1ccc(Cn2ccnc2C(C)O)cc1 (stereo not drawn) [Example 23, Methyl ((4-(4-((2-(1-hydroxyethyl)-1H-imidazol-1-yl)methyl)phenyl)-2-isobutylthiazol-5-yl)sulfonyl)carbamate] | >60 min | – | – | – |
| CCCCOC(=O)[N-]S(=O)(=O)c1ccc(CCC)cc1-c1ccc(Cn2ccnc2C(C)(C)O)cc1.[K+] [Example 31B, Potassium (butoxycarbonyl) ((4′-((2-(2-hydroxypropan-2-yl)-1H-imidazol-1-yl)methyl)-5-propyl-[1,1′-biphenyl]-2-yl)sulfonyl)amide] | 20 min | – | – | – |
| CCCCOC(=O)NS(=O)(=O)c1ccc(CC(C)C)cc1-c1ccc(Cn2ccnc2C(C)(C)F)cc1 [Example 32, Butyl ((4′-((2-(2-fluoropropan-2-yl)-1H-imidazol-1-yl)methyl)-5-isobutyl-[1,1′-biphenyl]-2-yl)sulfonyl)carbamate] | – | – | – | inhibition at 10 min, 10 µM (CYP2C8): 66.5%; inhibition at 10 min, 10 µM (CYP2B6): 29.8%; inhibition at 10 min, 10 µM (CYP2C9): 43.7%; inhibition at 10 min, 10 µM (CYP2D6): 17.1%; inhibition at 10 min, 10 µM (CYP3A [2]): -11.7%; inhibition at 10 min, 10 µM (CYP2C19): 31%; inhibition at 10 min, 10 µM (CYP3A [3]): 8.43%; inhibition at 10 min, 10 µM (CYP1A): -3.04% |
| COC(=O)NS(=O)(=O)c1ccc(CC(C)C)cc1-c1ccc(Cn2ccnc2C(C)(C)F)cc1 [Example 34, Methyl ((4′-((2-(2-fluoropropan-2-yl)-1H-imidazol-1-yl)methyl)-5-isobutyl-[1,1′-biphenyl]-2-yl)sulfonyl)carbamate] | – | 0.0023 µM | 15 µM | inhibition at 10 min, 10 µM (CYP2C8): 70.3%; inhibition at 10 min, 10 µM (CYP2B6): 6.9%; inhibition at 10 min, 10 µM (CYP2C9): 42.2%; inhibition at 10 min, 10 µM (CYP2D6): 16.2%; inhibition at 10 min, 10 µM (CYP3A [2]): 9.98%; inhibition at 10 min, 10 µM (CYP2C19): 43.3%; inhibition at 10 min, 10 µM (CYP3A [3]): 18.1%; inhibition at 10 min, 10 µM (CYP1A): -5.97% |

More lines, main results first:

| Stability in liver microsomes HLM [1] | Ki (human AT2R) | Ki (human AT1R) | Structure (SMILES) | other results |
| --- | --- | --- | --- | --- |
| >60 min | 0.012 µM | 1 µM | CCCCOC(=O)NS(=O)(=O)c1sc(CC(C)C)nc1-c1ccc(Cn2ccnc2C(C)(C)O)cc1 [Example 17A, Butyl ((4-(4-((2-(2-hydroxypropan-2-yl)-1H-imidazol-1-yl)methyl)phenyl)-2-isobutylthiazol-5-yl)sulfonyl)carbamate] | – |
| >60 min | 0.0046 µM | 1 µM | CCCc1ccc(S(=O)(=O)[N-]C(=O)OC)c(-c2ccc(Cn3ccnc3C(C)(C)O)cc2)c1.[K+] [Example 30B, Potassium (methoxycarbonyl) ((4′-((2-(2-hydroxypropan-2-yl)-1H-imidazol-1-yl)methyl)-5-propyl-[1,1′-biphenyl]-2-yl)sulfonyl)amide] | – |
